Measured values as given in patent publication US8680269B2, “Pesticidal compositions” (Dow AgroSciences, LLC., priority 2009, dated 2014).

How the values were obtained:
Type in all cases: in vivo
[1] = test system: beet armyworm (BAW; Spodoptera exigua); assay: Insecticidal test for beet armyworm, 128-well diet tray assay; details: 144 h, 50 μg/cm2 on artificial diet, second instar larvae, six days at 25° C.
Method in brief: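 Second-instar larvae, three to five per well, fed on artificial diet surface-treated with 50 μg/cm^2 compound (applied in 90:10 acetone-water, dried). Held 6 days at 25 °C, 14:10 light-dark; percent mortality scored per well and averaged over eight wells.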

[2] = test system: corn earworm (CEW; Helicoverpa zea); assay: Insecticidal test for corn earworm, 128-well diet tray assay; details: 144 h, 50 μg/cm2 on artificial diet, second instar larvae, six days at 25° C.
Method in brief: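 Second-instar H. zea larvae, three to five per well, on artificial diet surface-treated with 50 μg/cm^2 compound (90:10 acetone-water, dried), eight wells per compound. Held 6 days at 25° C, 14:10 light-dark; percent mortality averaged over wells.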

[3] = test system: green peach aphid (Myzus persicae); assay: Insecticidal test for green peach aphid in foliar spray assay; details: 72 h, 200 ppm foliar spray on cabbage seedlings, graded after three days, Abbott corrected % control, read-out: Mortality GPA 200 ppm
Description: Cabbage seedlings grown in 3-inch pots, with 2-3 small (3-5 cm) true leaves, were used as test substrate. The seedlings were infested with 20-50 green peach aphids (wingless adult and nymph) one day prior to chemical application. Four pots with individual seedlings were used for each treatment. Compounds (2 mg) were dissolved in 2 mL of acetone/methanol (1:1) solvent, forming stock solutions of 1000 ppm. The stock solutions were diluted 5× with 0.025% Tween 20 in H2O to obtain the test solution at 200 ppm. A hand-held Devilbiss sprayer was used for spraying a solution to both sides of cabbage leaves until runoff. Reference plants (solvent check) were sprayed with the diluent only. Treated plants were held in a holding room for three days at approximately 25° C. and 40% relative humidity (RH) prior to grading. Evaluation was conducted by counting the number of live aphids per plant under a microscope. Insecticidal activity data, measured by using Abbott's correction formula, are presented in Table 2: Corrected % Control=100*(X−Y)/X • where X=No. of live aphids on solvent check plants • Y=No. of live aphids on treated plants

Structure (SMILES): COc1cc(C)c(NC(=S)N/N=C(\C)c2ccc(-c3ncn(-c4ccc(OC(F)(F)F)cc4)n3)cc2)c(C)c1 [Compound 125]
- mortality at 50 µg/cm2 [1]: 50 to 100%
- mortality at 50 µg/cm2 [2]: 50 to 100%
- mortality at 200 ppm [3]: < 80%

Structure (SMILES): Fc1cccc(Cl)c1NC(=S)N/N=C/c1ccc(-c2ncn(-c3ccc(OC(F)(F)F)cc3)n2)cc1 [Compound 63]
- mortality at 50 µg/cm2 [1]: 50 to 100%
- mortality at 50 µg/cm2 [2]: 50 to 100%
- mortality at 200 ppm [3]: < 80%

Structure (SMILES): CN(C)c1ccc(NC(=S)N/N=C/c2ccc(-c3ncn(-c4ccc(OC(F)(F)C(F)(F)F)cc4)n3)cc2)cc1 [Compound 36]
- mortality at 50 µg/cm2 [1]: 50 to 100%
- mortality at 50 µg/cm2 [2]: 50 to 100%
- mortality at 200 ppm [3]: < 80%

Structure (SMILES): Nc1ccc(NC(=S)N/N=C/c2ccc(-c3ncn(-c4ccc(OC(F)(F)F)cc4)n3)cc2)cc1 [Compound 81]
- mortality at 50 µg/cm2 [1]: 50 to 100%
- mortality at 50 µg/cm2 [2]: 50 to 100%
- mortality at 200 ppm [3]: < 80%

Structure (SMILES): CC(=O)Nc1cccc(NC(=S)N/N=C/c2ccc(-c3ncn(-c4ccc(OC(F)(F)F)cc4)n3)cc2)n1 [Compound 44]
- mortality at 50 µg/cm2 [1]: < 50%
- mortality at 50 µg/cm2 [2]: < 50%
- mortality at 200 ppm [3]: < 80%

Structure (SMILES): FC(F)(F)Oc1ccc(-n2cnc(-c3ccc(/C=N/NC(=S)NC4CC4)cc3)n2)cc1 [Compound 23]
- mortality at 50 µg/cm2 [1]: 50 to 100%
- mortality at 50 µg/cm2 [2]: 50 to 100%
- mortality at 200 ppm [3]: < 80%

Structure (SMILES): FC(F)(F)c1ccc(-n2cnc(-c3ccc(/C=N/NC(=S)NCCc4ccccn4)cc3)n2)cc1 [Compound 5]
- mortality at 50 µg/cm2 [1]: 50 to 100%
- mortality at 50 µg/cm2 [2]: 50 to 100%
- mortality at 200 ppm [3]: < 80%

Structure (SMILES): FC(F)(F)Oc1ccc(-n2cnc(-c3ccc(/C=N/NC(=S)Nc4ccc(C(F)(F)F)cc4)cc3)n2)cc1 [Compound 32]
- mortality at 50 µg/cm2 [1]: < 50%
- mortality at 50 µg/cm2 [2]: < 50%
- mortality at 200 ppm [3]: < 80%

Structure (SMILES): FC(F)(F)Oc1ccc(-n2cnc(-c3ccc(/C=N/NC(=S)NCCC4=CCCCC4)cc3)n2)cc1 [Compound 20]
- mortality at 50 µg/cm2 [1]: 50 to 100%
- mortality at 50 µg/cm2 [2]: 50 to 100%
- mortality at 200 ppm [3]: < 80%

Structure (SMILES): COc1ccc(NC(=S)N/N=C/c2ccc(-c3cn(-c4ccc(OC(F)(F)F)cc4)cn3)cc2)cc1 [Compound 67]
- mortality at 50 µg/cm2 [1]: 50 to 100%
- mortality at 50 µg/cm2 [2]: 50 to 100%
- mortality at 200 ppm [3]: < 80%

Structure (SMILES): FC(F)(F)Oc1ccc(-n2cnc(-c3ccc(/C=N/NC(=S)Nc4ccccc4)cc3)n2)cc1 [Compound 14]
- mortality at 50 µg/cm2 [1]: 50 to 100%
- mortality at 50 µg/cm2 [2]: 50 to 100%
- mortality at 200 ppm [3]: < 80%

Structure (SMILES): COc1ccc(NC(=S)N/N=C/c2ccc(-c3ncn(-c4ccc(OC(F)(F)F)cc4)n3)cc2)c(C)c1 [Compound 46]
- mortality at 50 µg/cm2 [1]: 50 to 100%
- mortality at 50 µg/cm2 [2]: 50 to 100%
- mortality at 200 ppm [3]: < 80%

Structure (SMILES): COc1ccccc1NC(=S)N/N=C/c1ccc(-c2ncn(-c3ccc(OC(F)(F)F)cc3)n2)cc1 [Compound 74]
- mortality at 50 µg/cm2 [1]: 50 to 100%
- mortality at 50 µg/cm2 [2]: 50 to 100%
- mortality at 200 ppm [3]: < 80%

Structure (SMILES): C=CCNC(=S)N/N=C/c1ccc(-c2ncn(-c3ccc(OC(F)(F)F)cc3)n2)cc1 [Compound 12]
- mortality at 50 µg/cm2 [1]: 50 to 100%
- mortality at 50 µg/cm2 [2]: 50 to 100%
- mortality at 200 ppm [3]: < 80%

Structure (SMILES): FC(F)(F)Oc1ccc(-n2cnc(-c3ccc(/C=N/NC(=S)Nc4ccc(Cl)cn4)cc3)n2)cc1 [Compound 59]
- mortality at 50 µg/cm2 [1]: < 50%
- mortality at 50 µg/cm2 [2]: < 50%
- mortality at 200 ppm [3]: < 80%

Structure (SMILES): CC(=O)c1ccc(NC(=S)N/N=C/c2ccc(-c3ncn(-c4ccc(OC(F)(F)F)cc4)n3)cc2)cc1 [Compound 33]
- mortality at 50 µg/cm2 [1]: 50 to 100%
- mortality at 50 µg/cm2 [2]: 50 to 100%
- mortality at 200 ppm [3]: < 80%

Structure (SMILES): CN(C)CCCNC(=S)N/N=C/c1ccc(-c2ncn(-c3ccc(OC(F)(F)F)cc3)n2)cc1 [Compound 19]
- mortality at 50 µg/cm2 [1]: < 50%
- mortality at 50 µg/cm2 [2]: < 50%
- mortality at 200 ppm [3]: < 80%

Structure (SMILES): COc1ccc(NC(=S)N/N=C/c2ccc(-c3ncn(-c4ccc(OC(F)(F)F)cc4)n3)cc2)c(C(F)(F)F)c1 [Compound 51]
- mortality at 50 µg/cm2 [1]: 50 to 100%
- mortality at 50 µg/cm2 [2]: 50 to 100%
- mortality at 200 ppm [3]: < 80%

Structure (SMILES): FC(F)(F)Oc1ccc(-n2cnc(-c3ccc(/C=N/NC(=S)Nc4ccccc4OC(F)(F)F)cc3)n2)cc1 [Compound 66]
- mortality at 50 µg/cm2 [1]: 50 to 100%
- mortality at 50 µg/cm2 [2]: 50 to 100%
- mortality at 200 ppm [3]: < 80%

Structure (SMILES): Cc1cccc(C)c1NC(=S)N/N=C/c1ccc(-c2ncn(-c3ccc(OC(F)(F)F)cc3)n2)cc1 [Compound 78]
- mortality at 50 µg/cm2 [1]: 50 to 100%
- mortality at 50 µg/cm2 [2]: 50 to 100%
- mortality at 200 ppm [3]: < 80%

Structure (SMILES): FC(F)(F)Oc1ccc(-n2cnc(-c3ccc(/C=N/NC(=S)Nc4ccc(Cl)cc4)cc3)n2)cc1 [Compound 56]
- mortality at 50 µg/cm2 [1]: 50 to 100%
- mortality at 50 µg/cm2 [2]: 50 to 100%
- mortality at 200 ppm [3]: < 80%

Structure (SMILES): CC(=O)N(C)c1ccc(NC(=S)N/N=C/c2ccc(-c3ncn(-c4ccc(OC(F)(F)F)cc4)n3)cc2)cc1 [Compound 40]
- mortality at 50 µg/cm2 [1]: 50 to 100%
- mortality at 50 µg/cm2 [2]: 50 to 100%
- mortality at 200 ppm [3]: < 80%

Structure (SMILES): O=C(N/N=C/c1ccc(-c2ncn(-c3ccc(OC(F)(F)F)cc3)n2)cc1)Nc1c(Cl)cccc1Cl [Compound 120]
- mortality at 50 µg/cm2 [1]: 50 to 100%
- mortality at 50 µg/cm2 [2]: 50 to 100%
- mortality at 200 ppm [3]: < 80%

Structure (SMILES): CC(=O)Nc1ccc(NC(=S)N/N=C/c2ccc(-c3ncn(-c4ccc(OC(F)(F)F)cc4)n3)cc2)cc1 [Compound 41]
- mortality at 50 µg/cm2 [1]: 50 to 100%
- mortality at 50 µg/cm2 [2]: 50 to 100%
- mortality at 200 ppm [3]: < 80%

Structure (SMILES): CCc1cccc(C)c1NC(=S)N/N=C/c1ccc(-c2ncn(-c3ccc(OC(F)(F)F)cc3)n2)cc1 [Compound 72]
- mortality at 50 µg/cm2 [1]: 50 to 100%
- mortality at 50 µg/cm2 [2]: 50 to 100%
- mortality at 200 ppm [3]: < 80%

Structure (SMILES): COc1ccc(NC(=O)N/N=C/c2ccc(-c3ncn(-c4ccc(OC(F)(F)F)cc4)n3)cc2)c(C)c1 [Compound 119]
- mortality at 50 µg/cm2 [1]: 50 to 100%
- mortality at 50 µg/cm2 [2]: 50 to 100%
- mortality at 200 ppm [3]: < 80%

Structure (SMILES): COc1cc(C)c(NC(=S)N/N=C/c2ccc(-c3ncn(-c4ccc(OC(F)(F)C(F)(F)F)cc4)n3)cc2)c(C)c1 [Compound 128]
- mortality at 50 µg/cm2 [1]: 50 to 100%
- mortality at 50 µg/cm2 [2]: 50 to 100%
- mortality at 200 ppm [3]: < 80%

Structure (SMILES): CN(C)c1ccccc1CNC(=S)N/N=C/c1ccc(-c2ncn(-c3ccc(OC(F)(F)F)cc3)n2)cc1 [Compound 39]
- mortality at 50 µg/cm2 [1]: 50 to 100%
- mortality at 50 µg/cm2 [2]: 50 to 100%
- mortality at 200 ppm [3]: < 80%

Structure (SMILES): Fc1c(F)c(F)c(NC(=S)N/N=C/c2ccc(-c3ncn(-c4ccc(OC(F)(F)F)cc4)n3)cc2)c(F)c1F [Compound 64]
- mortality at 50 µg/cm2 [1]: 50 to 100%
- mortality at 50 µg/cm2 [2]: 50 to 100%
- mortality at 200 ppm [3]: < 80%

Structure (SMILES): COc1cccc(C)c1NC(=S)N/N=C/c1ccc(-c2ncn(-c3ccc(OC(F)(F)F)cc3)n2)cc1 [Compound 73]
- mortality at 50 µg/cm2 [1]: 50 to 100%
- mortality at 50 µg/cm2 [2]: 50 to 100%
- mortality at 200 ppm [3]: < 80%
